According to US4760065A, “Trifluoromethyl substituted tetracyclic quinazolin-ones having tranquilizing activity” (priority 1986, dated 1988):

Legend:
[1] = Rotarod, Locomotion and Rearing Tests (indicative of sedation); assay type: in vivo; details: rat, locomotion, rearing tests, rats, one value stated for the three tests
Description: (§1) While the racemates and individual optical isomers were indicated to have about the same level of activity in FBA tests specifically indicating tranquilizing activity, a marked difference was found between R-and S optical isomers in vivo in tests indicative of sedation. […] On the other hand, in the case of the S-isomer, the doses producing sedation effects were indicated to substantially overlap those at which tranquilizing activity was indicated. For example, in vivo tests in rats. The S-isomer of Example 9 hereinafter was indicated to have tranquilizing (anxiolytic) action in the dose range of about 2 to 15 milligrams per kilograms and mild sedation-related effects in the dose range of about 3-50 milligrams per kilogram. […] In evaluation of the optical isomers in rats to obtain the above indications, the Discrimination Test and the conflict segment (number of lickings) of Geller Conflict Test were used to evaluate tranquilizing activity. […] In the conflict test, the R-isomer was indicated to have a minimum effective dosage of 30 mg/kg. and the S-isomer a minimum effective dosage of 10 mg/kg. […] On the other hand, the S-isomer was indicated to have an ED50 between 40-50 mg/kg. in the Rotarod, Locomotion and Rearing Tests and a low minimum effective dose of 3 mg/kg. in the Sleep Studies.

rats [2] = assay: Sleep studies (sleep/wakefulness studies); assay type: in vivo; details: indicative of sedation
Description: as §1

rats [3] = assay: Discrimination Test; assay type: in vivo; details: Rattus norvegicus, tranquilizing activity
Description: as §1

rats [4] = assay: Geller Conflict test (conflict segment); assay type: in vivo; details: Rattus norvegicus; for minimal effective dose: conflict segment (number of lickings), read-out: minimum effective dosage in conflict test
Description: Speth et al., Life Science, 22: 859 (1978). Routine and non-substantive modifications of the Flunitrazepam Receptor Binding Assay that are evident from the following description are employed in such evaluation in which non-radioactive candidate compounds are tested for their ability to displace ^3 H-flunitrazepam binding from isolated calf brain benzodiazepine receptors. […] This suspension is made homogenous by homogenation with a Brinkmann Polytron using a rheostate setting of 8 for 10 seconds. Ten λ of ^3 H-flunitrazepam solution is diluted in 0.05M Tris buffer (pH 7.1 at 37° C.) to give a concentration of 10 nM (3.13×10^-6 mg/ml). This solution is stored frozen at -20° C., while the stock ^3 H-flunitrazepam solution in ethanol is kept refrigerated at +2° C. Periodically, the stock ethanolic ^3 H-flunitrazepam solution is examined by TLC for chemical purity. If the purity becomes <90%, the stock solution is repurified or new high purity ^3 H-flunitrazepam is obtained and the impure ^3 H-flunitrazepam discarded. A 0.1 ml portion of 10 nM ^3 H-flunitrazepam "working" solution is added to 12×75 mm borosilicate disposable test tube along with 0.1 ml of freshly prepared 10% ethanol solution. This is the control tube for measuring total binding. Non-specific binding is determined by the addition of 2×10^-5 diazepam (in 10% ethanol) to other tubes in the place of 0.1 ml 10% ethanol. The specific binding is determined in the final results by subtraction of the non-specific binding from the total binding. […] Three mg of each compound are placed in 18×150 mm borosilicate disposable test tubes. […] The ^3 H-flunitrazepam trapped on the filters is counted by liquid scintillation counting on a Beckman LS 8000 after the filters are rapidly shaken for 45 minutes in the scintillation vials with 10 ml of scintillation cocktail. Results of compounds screened are calculated by the on-line data reduction system in the Beckman LS 8000, and are expressed as a percent specifically bound compared to control. […]

rats [5] = assay: In vivo tests in rats: dose ranges of tranquilizing action and sedation-related effects; details: about; for dose range of sedation-related effects: mild (S-isomer) or weak-to-mild (R-isomer) effects
Description: as §1

[6] = target: calf brain benzodiazepine receptors (3H-Flunitrazepam binding, calf brain cortex); assay: Flunitrazepam Receptor Binding Assay, Chang et al. modification (FBA TEST No. 2); details: read-out: IC50 in FBA test (inhibition of specific binding of 3H-Flunitrazepam)
Description: Substantially similar results are obtainable in a Flunitrazepam Receptor Binding Assay (FBA) as described by Chang et. al., Eur. J. Pharmacol., 48, 213 (1978): when carried out with the non-substantive modifications evident from the following description (hereinafter FBA TEST No. (2): Fresh calf brain cortex is homogenized in a 19 fold volume of Tris-HCl buffer pH 7.4, using a Brinkman Polytron PT 20 and centrifuged at 50'000 g for 10 min. The pellets are frozen at -20° C. and resuspended in a 400 fold volume of Tris-buffer pH 7.4 before use for the binding assay. The assay mixtures consist of 1.8 ml of homogenate (corresponding to 4.5 mg of original tissue), 0.1 ml [^3 H]-Flunitrazepam (final concentration 1.5 nM), and 0.1 ml of buffer for determination of total binding or 0.1 ml of unlabelled Flunitrazepam (final concentration 1 μM) for determination of nonspecific binding, respectively. To assess the potency of various drugs in inhibiting specific binding, drugs are added (instead of buffer) to give 5 to 9 different concentrations between 1 nM and 10 μM, each in duplicate. After incubation for 15 min at 0° C., the assay mixtures are rapidly filtered through Whatman GF/B filters and washed twice with 5 ml of ice cold Tris-buffer. The filters are counted in Rialuma on a LKB Rach-Beta Liquid Scintillation Counter. […]

[7] = system: monkeys, rats, cats, mice; assay: Other standard CNS depressant tests (sleep studies, spinal reflex test, chemically induced convulsions test, Dunham rotarod test, variable interval segment of Geller Conflict test); assay type: in vivo; details: at the doses useful as minor tranquilizers, sleep studies in monkeys and rats

Compound	ED50 [1] [mg/kg]	minimum effective dose in sleep studies (sleep/wakefulness studies) (rats [2]) [mg/kg]	ED50 (rats [3]) [mg/kg]	minimal effective dose (rats [4]) [mg/kg]	dose range of tranquilizing (anxiolytic) action (rats [5])	dose range of sedation-related effects (rats [5])	IC50 [6] [nM]	activity in other standard CNS depressant tests [7]	ED50 (rats [4]; po, P.O.) [mg/kg]
O=c1c2cc(C(F)(F)F)ccc2nc2n1C[C@H]1CCCCN21 [Example 5, (-)-10aR-7,8,9,10,10a,11-hexahydro-2-trifluoromethyl-13H-pyrido[1,'2':3,4]imidazo[2,1b]quinazolin-13-one]	> 120	60	4.2	30	4-40 milligrams per kilogram	60-120 milligrams per kilogram	–	–	–
O=c1c2cc(C(F)(F)F)ccc2nc2n1CC1CCCCN21 (stereo not drawn) [Example 1, Trans(e,e)-( )-2-trifluoromethyl-7,8,9,10,10a,11-Hexahydro-13H-pyrido[1',2':3,4]-imidazo[2,1-b]-quinazolin-13-one]	–	–	–	–	–	–	6.5	only mildly active or essentially inactive	15
O=c1c2cc(C(F)(F)F)ccc2nc2n1C[C@@H]1CCCCN21 [Example 8, (+)-10aS-7,8,9,10,10a,11-Hexahydro-2-trifluoromethyl-13H-pyrido[1,'2':3,4]imidazo[2,1b]quinazolin-13-one]	40 to 50	3	2.6	10	–	3-50 milligrams per kilogram	–	–	–
